Our source for the EC50 values is patent US12037344B2, “NLRP3 modulators” (INNATE TUMOR IMMUNITY, INC., priority 2018, dated 2024).

The subject of one test is THP-1 cells. Kind of test: Measurement of IL-1β production, hTRF protocol (second alternative procedure), THP-1 cells. Type of test: cell-based, human. Conditions: Homo sapiens, THP-1, IL-1β production, human cells; read-out: NLRP3 hILIB EC50. The method, boiled down:
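Compounds, dilution series starting at a final 10 μM, were incubated 2 hours at 37° C with PMA-differentiated THP-1 cells (50 ng/ml overnight; 50,000 cells/well, 2% FBS RPMI). Released IL-1β quantified in supernatant by hTRF kit with 1:40 antibody dilution, 4° C overnight, 665/615 nm ratio.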

The target of a further test is T1, TLR7 (Homo sapiens, UniProt Q9NYK1).
T1 construct: human HEK-Blue cells co-expressing a TLR7 or TLR8 gene
T1 sequence (Q9NYK1 27-1049): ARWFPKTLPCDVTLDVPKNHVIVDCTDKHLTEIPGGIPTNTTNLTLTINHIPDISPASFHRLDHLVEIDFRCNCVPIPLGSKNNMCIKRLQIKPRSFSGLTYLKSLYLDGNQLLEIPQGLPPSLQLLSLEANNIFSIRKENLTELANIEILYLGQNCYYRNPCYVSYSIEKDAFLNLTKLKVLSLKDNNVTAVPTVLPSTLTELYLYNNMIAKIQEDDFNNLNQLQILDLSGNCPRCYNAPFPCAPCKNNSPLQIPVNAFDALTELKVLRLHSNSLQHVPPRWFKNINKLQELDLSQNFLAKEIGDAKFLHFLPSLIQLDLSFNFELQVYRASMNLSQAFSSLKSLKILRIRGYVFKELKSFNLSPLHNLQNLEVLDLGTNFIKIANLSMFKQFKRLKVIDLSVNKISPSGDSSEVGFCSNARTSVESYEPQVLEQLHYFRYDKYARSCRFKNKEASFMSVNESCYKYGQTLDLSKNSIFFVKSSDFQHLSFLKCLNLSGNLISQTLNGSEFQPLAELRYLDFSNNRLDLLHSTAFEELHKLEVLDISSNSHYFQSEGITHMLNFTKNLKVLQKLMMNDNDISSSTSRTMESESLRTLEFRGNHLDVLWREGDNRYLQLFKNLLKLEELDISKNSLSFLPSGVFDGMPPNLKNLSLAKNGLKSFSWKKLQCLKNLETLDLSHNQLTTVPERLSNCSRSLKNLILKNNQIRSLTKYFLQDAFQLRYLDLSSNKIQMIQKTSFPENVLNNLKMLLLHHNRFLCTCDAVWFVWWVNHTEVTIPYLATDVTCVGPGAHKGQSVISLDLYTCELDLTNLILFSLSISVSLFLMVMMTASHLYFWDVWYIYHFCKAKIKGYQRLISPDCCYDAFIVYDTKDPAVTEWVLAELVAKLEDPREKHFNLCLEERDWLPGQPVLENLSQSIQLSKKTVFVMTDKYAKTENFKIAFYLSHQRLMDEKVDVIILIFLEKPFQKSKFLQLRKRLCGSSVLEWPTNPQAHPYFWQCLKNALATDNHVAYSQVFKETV
Put plainly: In vitro human TLR7 binding reporter assay (HEK-Blue, NF-kB/AP1-inducible SEAP). In kind it is cell-based. Conditions: activity range, read-out: TLR7 Agonist EC50. The gist of the method: (§1)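 EC50s come from NF-kB/AP1-driven SEAP secretion in HEK-Blue cells expressing TLR7 or TLR8, measured with Quanti-Blue after an 18 h compound incubation. Maximal response is defined by a 50 μM reference standard.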

A further test has as its target T2, TLR8 (Homo sapiens, UniProt Q9NR97).
T2 construct: human HEK-Blue cells co-expressing a TLR7 or TLR8 gene
T2 sequence (Q9NR97 27-1041): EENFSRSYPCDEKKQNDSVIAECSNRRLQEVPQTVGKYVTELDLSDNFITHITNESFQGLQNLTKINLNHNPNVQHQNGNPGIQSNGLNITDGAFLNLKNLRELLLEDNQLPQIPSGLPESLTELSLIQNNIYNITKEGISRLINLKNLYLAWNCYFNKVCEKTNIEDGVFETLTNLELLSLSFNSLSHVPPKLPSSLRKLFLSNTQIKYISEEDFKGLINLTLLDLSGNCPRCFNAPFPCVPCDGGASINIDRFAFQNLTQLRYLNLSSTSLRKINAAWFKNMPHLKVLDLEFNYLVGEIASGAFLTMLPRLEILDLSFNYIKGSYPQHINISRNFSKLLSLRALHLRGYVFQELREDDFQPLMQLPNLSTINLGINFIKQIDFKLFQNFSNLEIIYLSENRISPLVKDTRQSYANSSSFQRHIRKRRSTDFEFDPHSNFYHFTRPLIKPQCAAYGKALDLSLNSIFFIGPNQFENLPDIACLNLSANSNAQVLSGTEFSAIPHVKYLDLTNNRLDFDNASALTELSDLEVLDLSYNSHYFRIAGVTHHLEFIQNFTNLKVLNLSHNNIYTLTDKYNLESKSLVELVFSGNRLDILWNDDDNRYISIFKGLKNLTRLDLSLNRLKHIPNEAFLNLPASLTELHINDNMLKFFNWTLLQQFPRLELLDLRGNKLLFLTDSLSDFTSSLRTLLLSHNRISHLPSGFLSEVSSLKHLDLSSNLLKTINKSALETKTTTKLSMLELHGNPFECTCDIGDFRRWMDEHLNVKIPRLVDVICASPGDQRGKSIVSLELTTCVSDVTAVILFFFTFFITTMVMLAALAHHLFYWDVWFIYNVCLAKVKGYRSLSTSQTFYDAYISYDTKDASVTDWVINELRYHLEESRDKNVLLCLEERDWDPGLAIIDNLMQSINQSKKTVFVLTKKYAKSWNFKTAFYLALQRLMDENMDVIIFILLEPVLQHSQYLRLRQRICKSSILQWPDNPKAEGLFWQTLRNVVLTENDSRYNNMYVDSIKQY
Put plainly: In vitro human TLR8 binding reporter assay (HEK-Blue, NF-kB/AP1-inducible SEAP). In kind it is cell-based. The following applies: activity range, read-out: TLR8 Agonist EC50. The gist of the method: as §1

A value given as a limit tells only on which side of the number the result lay.

With `COCCS(=O)(=O)NCCc1cc2c(N)nc3cc(-c4cc[nH]n4)ccc3c2[nH]1` [Example 498], the EC50 in the test with THP-1 cells was 2.39 µM; at TLR7 it was more than 100 µM; at TLR8, more than 100 µM.
